Converted amounts (≈) assume the structure as drawn. “And” between values parts separate entries of the source, which are not always exact repeats. Equal entries are not always repeated.
Assays:
Oryctolagus sp. = conditions: for LD50: acute
Rattus norvegicus [1] = conditions: for LC50 / LD50: acute
Rattus norvegicus [2] = conditions: subchronic; oral; gavage; M; Sprague-Dawley; Food Consumption: increase + Urinalysis: Ketone body decrease + Blood Chemistry: T-Cho increase, PL increase, TP increase + Absolute Organ …
Mus musculus = conditions: inhalation
[3] = subchronic, duration: 30 days, oral, diet, Sprague-Dawley
[4] = chronic, duration: 693 days, oral, diet, Sprague-Dawley
[5] = reproduction developmental, duration: 94 days, oral, diet, Sprague-Dawley, generation: F0
[6] = subchronic, duration: 13 weeks, oral, diet, Sprague-Dawley
[7] = reproduction developmental, duration: 5 days, CD1, generation: F0

For C=C(C#N)C(=O)OCC [Ethyl cyanoacrylate], which LD50 (Oryctolagus sp.; dermal, occlusive, New Zealand) is on record?
The LD50 was over 2000 mg/kg.

What about the LC50 (Rattus norvegicus [1]; inhalation, Wistar) of the same compound?
The LC50 was under 21.1 µg/mL.

What about the LD50 (Rattus norvegicus [1]; oral, gavage) of the same compound?
The LD50 was over 5000 mg/kg.

CC(C)OC(C)C [Isopropyl ether] was tested. Which LD50 (Oryctolagus sp.; dermal, non-occlusive, New Zealand) did it give?
The LD50 was over 2000 mg/kg.

And the LD50 (Oryctolagus sp.; oral, New Zealand)?
Its LD50 is 4500 mg/kg.

And the NOAEL (Rattus norvegicus [1]; reproduction developmental, duration: 13 weeks, inhalation, Sprague-Dawley)?
The NOAEL was 2010 mg/m3.

And the NOAEL (Rattus norvegicus [1]; reproduction developmental, duration: 10 days, inhalation, F, Sprague-Dawley)?
The NOAEL was 1800 mg/m3.

What about the NOEL (Rattus norvegicus [2]) of the same compound?
Its NOEL is under 100 mg/kg-day.

With CN=C=O [Methyl isocyanate] as the compound, how does the LOAEL (Rattus norvegicus [1]; developmental, duration: 0.5 hours, inhalation) read?
Its LOAEL is under 0.495 mg/m3.

What about the NOAEL (Rattus norvegicus [1]; reproduction developmental, duration: 8 minutes, inhalation, whole body, Wistar, generation: F0) of the same compound?
The NOAEL was over 3140 mg/m3.

What about the LOAEL (Rattus norvegicus [1]; reproduction developmental, duration: 0.5 hours, inhalation, F) of the same compound?
Its LOAEL is under 0.495 mg/m3.

What about the NOAEL (Rattus norvegicus [1]; reproduction developmental, duration: 0.5 hours, inhalation, generation: F0) of the same compound?
Its NOAEL is over 0.824 mg/m3.

And the LOAEL (Mus musculus; developmental, duration: 6 hours, Swiss)?
The LOAEL was under 2.33 mg/m3.

And the NOAEL (Mus musculus; reproduction developmental, duration: 6 hours, F, Swiss)?
The NOAEL was over 7 mg/m3.

And the NOAEL (Mus musculus; reproduction developmental, duration: 6 hours, Swiss, generation: F0)?
The NOAEL was over 7 mg/m3.

Which results are given for CN(C)CCN(C)C [N,N,N',N'-Tetramethylethylenediamine]?
LD50 (Oryctolagus sp.; dermal, New Zealand): 1230 mg/kg; LC50 (Rattus norvegicus [1]; inhalation): > 5610 mg/m3; LC50 (Rattus norvegicus [1]; inhalation, Sprague-Dawley): > 5610 mg/m3; LC50 (Rattus norvegicus [1]; inhalation, Wistar): 6260 mg/m3

How did the LD50 (Oryctolagus sp.; dermal, New Zealand) turn out when CCNc1cccc(C)c1 [N-Ethyl-3-methylaniline] was run?
The LD50 was over 2000 mg/kg.

What about the LC50 (Rattus norvegicus [1]; inhalation) of the same compound?
The LC50 was 2.4 µg/mL (≈ 17.8 µM).

What about the LD50 (Rattus norvegicus [1]; oral, Sprague-Dawley) of the same compound?
Its LD50 is 787 mg/kg and 478 mg/kg.

What about the LD50 (Rattus norvegicus [1]; oral, gavage, Wistar) of the same compound?
Its LD50 is 650 mg/kg.

And the NOAEL (Rattus norvegicus [1]; short-term, duration: 2 weeks, inhalation, Sprague-Dawley)?
Its NOAEL is 31 mg/m3.

Which results are given for CN1C(=O)c2ccccc2C1=O [N-Methylphthalimide]?
LD50 (Oryctolagus sp.; dermal, occlusive, New Zealand): > 2000 mg/kg; NOAEL (Oryctolagus sp.; developmental, duration: 6 days, oral, gavage, New Zealand): > 500 mg/kg-day; LD50 (Rattus norvegicus [1]; oral, Spartan): > 500 mg/kg; LD50 (Rattus norvegicus [1]; oral, gavage, Spartan): > 500 mg/kg; NOAEL (Rattus norvegicus [1]; reproduction developmental, duration: 4 weeks, oral, gavage, F, Sprague-Dawley): 150 mg/kg-day; NOAEL (Rattus norvegicus [1]; reproduction developmental, duration: 4 weeks, oral, gavage, M, Sprague-Dawley): ≥ 600 mg/kg-day; NOAEL (Rattus norvegicus [1]; reproduction developmental, duration: 4 weeks, oral, gavage, Sprague-Dawley, generation: F0): 150 mg/kg-day; NOAEL (Rattus norvegicus [1]; reproduction developmental, duration: 4 weeks, oral, gavage, Sprague-Dawley, generation: F1): < 50 mg/kg-day; NOAEL (Rattus norvegicus [1]; reproduction developmental, oral, gavage, F): 150 mg/kg-day; NOAEL (Rattus norvegicus [1]; reproduction developmental, oral, gavage, generation: F0): 150 mg/kg-day; NOAEL (Rattus norvegicus [1]; reproduction developmental, oral, gavage, generation: F1): 50 mg/kg-day; LOAEL (% diet) (Rattus norvegicus [1]; [3]): 0.5; NOAEL (% diet) (Rattus norvegicus [1]; [3]): 0.25

How did the LD50 (Oryctolagus sp.; dermal, occlusive, New Zealand) turn out when CC1COC(=O)O1 (centres undefined) [Propylene carbonate] was run?
Its LD50 is over 3000 mg/kg.

And the LD50 (Rattus norvegicus [1]; oral, Sprague-Dawley)?
The LD50 was over 5000 mg/kg.

What about the NOAEL (Rattus norvegicus [1]; developmental, duration: 6 days, oral, gavage, Sprague-Dawley) of the same compound?
Its NOAEL is 5000 mg/kg-day.

And the NOAEL (Rattus norvegicus [1]; reproduction developmental, duration: 13 weeks, oral, gavage, Sprague-Dawley, generation: F0)?
The NOAEL was 5000 mg/kg-day.

What about the NOAEL (Rattus norvegicus [1]; reproduction developmental, duration: 13 weeks, oral, gavage, Sprague-Dawley, generation: F1) of the same compound?
Its NOAEL is 5000 mg/kg-day.

And the NOAEL (Rattus norvegicus [1]; reproduction developmental, duration: 13 weeks, oral, gavage, Sprague-Dawley, generation: F2)?
The NOAEL was 5000 mg/kg-day.

And the NOAEL (Rattus norvegicus [1]; reproduction developmental, duration: 93 days, inhalation, generation: F0)?
The NOAEL was 1000 mg/m3.

What about the NOAEL (Rattus norvegicus [1]; reproduction developmental, duration: 93 days, inhalation, generation: F1) of the same compound?
The NOAEL was 1000 mg/m3.

What about the NOAEL (Rattus norvegicus [1]; reproduction developmental, duration: 93 days, inhalation, generation: F2) of the same compound?
The NOAEL was 1000 mg/m3.

And the NOAEL (Rattus norvegicus [1]; subchronic, duration: 90 days, oral, gavage, Sprague-Dawley)?
The NOAEL was 5000 mg/kg-day.

What does the source list for c1ccc(OP(Oc2ccccc2)Oc2ccccc2)cc1 [Triphenyl phosphite]?
LD50 (Oryctolagus sp.; dermal, New Zealand): ≥ 2000 mg/kg and ≤ 5000 mg/kg; LC50 (Rattus norvegicus [1]; Inhalation, Sherman Wistar): > 6.7 µg/mL; LD50 (Rattus norvegicus [1]; oral, gavage, Sherman Wistar): 1590 mg/kg; NOAEL (Rattus norvegicus [1]; reproduction developmental, duration: 16 weeks, oral, gavage, Sprague-Dawley, generation: F0): 15 mg/kg-day; NOAEL (Rattus norvegicus [1]; reproduction developmental, duration: 16 weeks, oral, gavage, Sprague-Dawley, generation: F1): 15 mg/kg-day

O=c1n(CC2CO2)c(=O)n(CC2CO2)c(=O)n1CC1CO1 (centres undefined) [Tris(2,3-epoxypropyl)isocyanurate] was tested. Which LC50 (Rattus norvegicus [1]; Inhalation, TIF: RAIF (SPF)) did it give?
Its LC50 is over 300 mg/m3.

And the LC50 (Rattus norvegicus [1]; Inhalation, Tif.RAIF (SPF))?
The LC50 was 650 mg/m3.

And the LD50 (Rattus norvegicus [1]; dermal, Sprague-Dawley)?
The LD50 was over 3100 mg/kg.

And the LD50 (Rattus norvegicus [1]; dermal, semiocclusive, Sprague-Dawley)?
The LD50 was over 2000 mg/kg.

What about the LD50 (Rattus norvegicus [1]; dermal, semiocclusive, TIF. RAIF (SPF)) of the same compound?
Its LD50 is over 2000 mg/kg.

What about the LC50 (Rattus norvegicus [1]; inhalation, particle, Wistar) of the same compound?
Its LC50 is over 4.16 µg/mL.

And the LD50 (Rattus norvegicus [1]; oral, gavage, Sprague-Dawley)?
Its LD50 is 447 mg/kg.

What about the LD50 (Rattus norvegicus [1]; oral, gavage, TIF: RAIF (SPF)) of the same compound?
The LD50 was 305 mg/kg.

What about the LOAEL (Rattus norvegicus [1]; [4]) of the same compound?
Its LOAEL is over 100 mg/kg-day.

And the NOAEL (Rattus norvegicus [1]; [4])?
The NOAEL was 100 mg/kg-day.

And the LOAEL (Rattus norvegicus [1]; [5])?
Its LOAEL is over 100 mg/kg-day.

What about the NOAEL (Rattus norvegicus [1]; [5]) of the same compound?
The NOAEL was 30 mg/kg-day.

And the LOAEL (Rattus norvegicus [1]; [6])?
The LOAEL was over 100 mg/kg-day.

And the NOAEL (Rattus norvegicus [1]; [6])?
The NOAEL was 30 mg/kg-day.

What about the LC50 (Mus musculus; acute, particle, CD1) of the same compound?
The LC50 was 2 µg/mL (≈ 6.73 µM).

And the LOAEL (Mus musculus; [7])?
The LOAEL was over 8 mg/m3.

What about the NOAEL (Mus musculus; [7]) of the same compound?
Its NOAEL is over 8 mg/m3.

Which LD50 (Oryctolagus sp.; dermal, occlusive) does the source give for CCCCC(CC)C(=O)[O-].CCCCC(CC)C(=O)[O-].[Zn+2] (centres undefined) [Zinc 2-ethylhexoate] here?
The LD50 was over 5000 mg/kg.

What about the LC50 (Rattus norvegicus [1]; Inhalation) of the same compound?
Its LC50 is over 23.2 µg/mL.

What about the LD50 (Rattus norvegicus [1]; oral) of the same compound?
Its LD50 is ≥ 3550 mg/kg and ≤ 3700 mg/kg.

What about the LD50 (Rattus norvegicus [1]; oral, gavage) of the same compound?
Its LD50 is ≥ 3550 mg/kg and ≤ 3700 mg/kg.

What about the NOAEL (Rattus norvegicus [1]; short-term, duration: 7 days, oral, gavage, Sprague-Dawley) of the same compound?
Its NOAEL is 1000 mg/kg-day.

How did the LOAEL (Oryctolagus sp.; subchronic, duration: 90 days, dermal, semiocclusive, New Zealand) turn out when O=C([O-])c1ccc2ccccc2c1.O=C([O-])c1ccc2ccccc2c1.[Zn+2] [Zinc naphthenate] was run?
Its LOAEL is 1000 mg/kg-day.

What about the LD50 (Rattus norvegicus [1]; oral, gavage) of the same compound?
The LD50 was over 6000 mg/kg.

And the LD50 (Rattus norvegicus [1]; oral, gavage, Sprague-Dawley)?
Its LD50 is over 5000 mg/kg.

What about the LOAEL (Rattus norvegicus [1]; developmental, duration: 10 days, oral, gavage, Sprague-Dawley) of the same compound?
The LOAEL was 938 mg/kg-day.

And the LOAEL (Rattus norvegicus [1]; reproduction developmental, duration: 10 days, oral, gavage, F, Sprague-Dawley)?
Its LOAEL is 500 mg/kg-day and 938 mg/kg-day.

Source: EPA's ToxValDB 9.5
